Measurements published in patent US20050009797A1, “Androstane derivative having substituent in 7- abd 17--positions” (priority 2001, published 2005).
Like-named read-outs stand apart in the source and are kept apart here.

Assays:
castrated rats = castrated rats continuously administered for two weeks; cited from earlier work
human androgen receptor [1] = target: T1, human androgen receptor (Homo sapiens, UniProt P10275); experiment: Androgen receptor reporter gene assay, antagonistic effects (Example 26); format: cell-based
T1 construct: expressed in transfected cells; host or cells: HeLa cells
T1 sequence (P10275 1-920): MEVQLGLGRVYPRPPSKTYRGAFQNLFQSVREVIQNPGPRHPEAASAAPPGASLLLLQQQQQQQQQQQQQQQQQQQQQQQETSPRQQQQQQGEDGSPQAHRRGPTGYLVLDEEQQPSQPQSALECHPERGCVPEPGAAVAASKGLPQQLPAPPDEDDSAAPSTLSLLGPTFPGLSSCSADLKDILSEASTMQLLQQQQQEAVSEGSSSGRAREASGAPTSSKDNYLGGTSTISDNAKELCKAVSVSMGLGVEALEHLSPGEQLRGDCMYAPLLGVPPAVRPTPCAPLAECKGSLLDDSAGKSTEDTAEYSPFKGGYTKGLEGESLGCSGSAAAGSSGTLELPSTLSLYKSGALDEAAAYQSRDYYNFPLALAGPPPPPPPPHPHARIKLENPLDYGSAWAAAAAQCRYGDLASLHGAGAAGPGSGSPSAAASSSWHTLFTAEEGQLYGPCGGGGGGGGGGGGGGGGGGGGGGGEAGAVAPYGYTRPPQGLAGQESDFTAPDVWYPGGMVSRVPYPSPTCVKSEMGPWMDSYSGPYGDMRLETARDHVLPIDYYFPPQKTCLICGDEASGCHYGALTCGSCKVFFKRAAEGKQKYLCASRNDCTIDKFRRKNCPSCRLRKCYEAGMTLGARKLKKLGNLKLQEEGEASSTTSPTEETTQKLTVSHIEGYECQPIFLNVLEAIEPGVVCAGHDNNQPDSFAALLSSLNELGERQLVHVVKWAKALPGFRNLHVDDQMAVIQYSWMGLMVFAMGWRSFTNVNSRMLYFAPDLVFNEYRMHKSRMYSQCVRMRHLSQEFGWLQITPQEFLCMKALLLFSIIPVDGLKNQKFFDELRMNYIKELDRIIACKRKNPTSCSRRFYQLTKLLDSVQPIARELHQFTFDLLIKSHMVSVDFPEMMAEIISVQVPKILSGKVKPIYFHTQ
Description: (§1) Twenty-four hours before transfection, 1.0×10^5 HeLa cells are cultured in a 12-well microplate containing phenol red-free DMEM/5% DCC-FBS. The HeLa cells are then transfected with 500 ng/well MMTV-Luc vector, 100 ng/well pSG5-hAR and 5 ng/well Renilla Luc vector. Transfection is carried out in phenol red-free DMEM medium using 3 μL/well lipofectamine. Nine hours after transfection, the medium is replaced by phenol red-free DMEM/3% DCC-FBS supplemented with 0.1 nmol/L DHT and 1.0 μmol/L of the compound of Formula (I) or a salt or ester thereof according to the present invention. Forty-eight hours after replacement of the medium, the transcriptional activity is determined by a Dual-Luciferase Reporter Assay System according to the following equation: (transcriptional activity)=(firefly luciferase activity)/(Renilla luciferase activity). To effect this assay, reference may be made to J. Biol. Chem., vol. 270, p.
(§2) Twenty-four hours before transfection, 1.0×10^5 HeLa cells were cultured in a 12-well microplate containing phenol red-free DMEM/5% DCC-FBS. The HeLa cells were then transfected with 500 ng/well MMTV-Luc vector, 100 ng/well pSG5-hAR and 5 ng/well Renilla Luc vector. Transfection was carried out in phenol red-free DMEM medium using […] lipofectamine. […] Forty-eight hours after replacement of the medium, the transcriptional activity was determined by a Dual-Luciferase Reporter Assay System according to the following equation: (transcriptional activity)=(firefly luciferase activity)/(Renilla luciferase activity).

human androgen receptor [2] = target: T1, human androgen receptor; experiment: Androgen receptor reporter gene assay, agonistic effects (Example 25); format: cell-based; conditions: HeLa cells transfected with MMTV-Luc and pSG5-hAR; 1-10000 nmol/L; 48 h; no DHT
Description: as §1, with “cells (purchased from Dainippon Pharmaceutical Co., Ltd.)” for “cells”, “Dulbecco's Modified Eagle Medium (phenol red-free DMEM) supplemented” for “DMEM/5% DCC-FBS. The HeLa cells are then transfected”, “charcoal-treated FBS (DCC-FBS; 5%). […]” for “500 ng/well MMTV-Luc vector, 100 ng/well pSG5-hAR and 5 ng/well Renilla Luc vector.”, “lipofectamine (Gibco BRL).” for “lipofectamine.”, “10” for “0.1 nmol/L DHT and 1.0”, “System (promega)” for “System”
as §2
The transcriptional activity thus determined was used to calculate agonist activity according to the following equation, which in turn was used to calculate a FI5 value (i.e., a concentration at which the compound provides a 5-fold increase in transcriptional activity as compared to the value obtained in the absence of the compound). Agonist activity=(transcriptional activity in the presence of the compound)/(transcriptional activity in the absence of the compound)

androgen receptor = androgen receptor (Homo sapiens, UniProt P10275); conditions: concentration of 10 μM; cited from earlier work
[3] = prostate cancer patients undergoing treatment with flutamide; cited from earlier work
[4] = Metabolic stability in rat liver microsome with β-NAD+ (Example 27); format: in vitro ADME; conditions: 37° C.
Description: A test tube containing 0.1 mol/L potassium phosphate buffer (345 μL, pH 7.4) was cooled on ice, followed by addition of 5 mg/mL rat liver microsome (50 μL), 0.1 mol/L magnesium chloride (50 μL) and a test compound dissolved in ethanol (adjusted to 1 mg/mL, 5 μL). After pre-incubation at 37° C. for 5 minutes, 10 mM β-Nicotinamide-adenine dinucleotide, oxidized form (β-NAD^+) was added to initiate the reaction. The reaction was continued at 37° C. for 0, 5 and 15 minutes, followed by addition of 0.1 mol/L hydrochloric acid (100 μL) and diethyl ether (5 mL) to stop the reaction. The reaction mixture was stirred for 10 minutes and then centrifuged at 3000 rpm for 10 minutes. The upper organic layer (4.5 mL) was transferred to another test tube, evaporated to dryness under a nitrogen stream, dissolved in 40% acetonitrile (200 μL) and then measured for the peak area of the test compound by high performance liquid chromatography. The residual percentage of the test compound at a given point in time was calculated using the following equation: Residual (%)=[(peak area of the test compound at a given time point)/(peak area of the test compound at 0 minutes)]×100

[5] = 50% inhibition of transcriptional activity induced by DHT (0.1 nmol/L), HeLa cells transfected with MMTV-Luc and pSG5-hAR, 48 h, read-out: IC50 value

With `CC(=O)O[C@]1(C(C)=O)CC[C@H]2[C@@H]3C=C(Cl)C4=CC(=O)CC[C@]4(C)[C@H]3CC[C@@]21C` [chlormadinone acetate] as the molecule, how does the prostate weight (castrated rats) read?
Its prostate weight is “increase in their prostate weight”.

Which results are given for `CC12CCC(=O)C=C1CC(CCCc1cccc(CCCCC(=O)O)c1)C1C2CCC2(C)C1CCC2(C)O` (stereo not shown) [Example 24]?
IC50 (human androgen receptor [1]; [5]): 4040 nM; FI5 value (concentration giving 5-fold increase in transcriptional activity) (human androgen receptor [2]): ND (a FI5 value cannot be calculated because the compound provides less than a 5-fold increase in transcriptional activity even at a concentration of 10000 nM)

Which IC50 (human androgen receptor [1]; [5]) does the source give for `CC12CCC(=O)C=C1CC(CCCc1cccc(OCCCC(=O)O)c1)C1C2CCC2(C)C1CCC2(C)O` (stereo not shown) [Example 20] here?
The IC50 was 815 nM.

What about the “FI5 value (concentration giving 5-fold increase in transcriptional activity)” value (human androgen receptor [2]) of the same molecule?
The value was “ND (a FI5 value cannot be calculated because the compound provides less than a 5-fold increase in transcriptional activity even at a concentration of 10000 nM)”.

For `CC(C)(O)C(=O)Nc1ccc([N+](=O)[O-])c(C(F)(F)F)c1` [Hydroxyflutamide], which “effect on transcriptional activity of androgen receptor” value (androgen receptor) is on record?
Its value is “enhance the transcriptional activity of androgen receptor”.

What about the blood hydroxyflutamide levels [3] of the same molecule?
The blood hydroxyflutamide levels was “several”.

Which IC50 (human androgen receptor [1]) does the source give for `CC12CCC(=O)C=C1CC(CCCc1ccc(CCCCC(=O)O)cc1)C1C2CCC2(C)C1CCC2(C)O` (stereo not shown) [Example 22] here?
The IC50 was 717 nM.

And the “FI5 value (concentration giving 5-fold increase in transcriptional activity)” value (human androgen receptor [2])?
The value was “ND (a FI5 value cannot be calculated because the compound provides less than a 5-fold increase in transcriptional activity even at a concentration of 10000 nM)”.

Which IC50 (human androgen receptor [1]; [5]) does the source give for `CC12CCC(=O)C=C1CC(CCCCCc1ccc(OCC(=O)O)cc1)C1C2CCC2(C)C1CCC2(C)O` (stereo not shown) [Example 7] here?
The IC50 was 5140 nM.

And the “FI5 value (concentration giving 5-fold increase in transcriptional activity)” value (human androgen receptor [2])?
The value was “ND (a FI5 value cannot be calculated because the compound provides less than a 5-fold increase in transcriptional activity even at a concentration of 10000 nM)”.

Which “Residual (%) 5 minutes” value [4] does the source give for `CN(C)C(=O)CCCCCCC[C@@H]1C[C@H]2CC(=O)CC[C@]2(C)[C@H]2CC[C@]3(C)[C@@H](O)CC[C@H]3[C@H]12` [Comparative Example, 17β-hydroxy-7α-{7-(N,N-dimethylaminocarbonyl)heptyl}-5α-androstan-3-one, reference compound] here?
The value was 59.4%.

What about the “Residual (%) 15 minutes” value [4] of the same molecule?
The value was 15.1%.

Which results are given for `C[C@]12CCC(=O)C=C1C[C@@H](CCCCc1cccc(OCCCCC(=O)O)c1)[C@@H]1[C@@H]2CC[C@@]2(C)[C@H]1CC[C@]2(C)O` [Example 1, 17β-hydroxy-17α-methyl-7α-(4-(3-(4-carboxy-butoxy)phenyl)butyl)-4-androsten-3-one]?
IC50 (human androgen receptor [1]; [5]): 333 nM; FI5 value (concentration giving 5-fold increase in transcriptional activity) (human androgen receptor [2]): ND* (a FI5 value cannot be calculated because the compound provides less than a 5-fold increase in transcriptional activity even at a concentration of 10000 nM)

Which prostate weight (castrated rats) does the source give for `CC(=O)O[C@]1(C(C)=O)CC[C@H]2[C@@H]3C=C(Cl)C4=CC(=O)[C@@H]5C[C@@H]5[C@]4(C)[C@H]3CC[C@@]21C` [cyproterone acetate] here?
The prostate weight was “increase in their prostate weight”.

Which IC50 (human androgen receptor [1]; [5]) does the source give for `CC12CCC(=O)C=C1CC(CCCCc1cccc(OCCCCCC(=O)O)c1)C1C2CCC2(C)C1CCC2(C)O` (stereo not shown) [Example 13] here?
The IC50 was 529 nM.

What about the “FI5 value (concentration giving 5-fold increase in transcriptional activity)” value (human androgen receptor [2]) of the same molecule?
The value was “ND (a FI5 value cannot be calculated because the compound provides less than a 5-fold increase in transcriptional activity even at a concentration of 10000 nM)”.

With `C[C@]12CCC(=O)C=C1C[C@@H](CCCc1ccc(OCCCC(=O)O)cc1)[C@@H]1[C@@H]2CC[C@@]2(C)[C@H]1CC[C@]2(C)O` [Example 18, 17β-hydroxy-17α-methyl-7α-(3-(4-(3-carboxy-propoxy)phenyl)propyl)-4-androsten-3-one] as the molecule, how does the “Residual (%) 5 minutes” value [4] read?
Its value is 113.7%.

And the “Residual (%) 15 minutes” value [4]?
The value was 110.8%.

And the IC50 (human androgen receptor [1])?
Its IC50 is 664 nM.

What about the “FI5 value (concentration giving 5-fold increase in transcriptional activity)” value (human androgen receptor [2]) of the same molecule?
The value was “ND (a FI5 value cannot be calculated because the compound provides less than a 5-fold increase in transcriptional activity even at a concentration of 10000 nM)”.
